Measurements published in ChEMBL document CHEMBL1201862, “PubChem BioAssay data set” (2004).
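Each compound was tested at five concentrations against cells in 96-well plates for 48 hours. At the GI50, growth is halved.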 Calls of active or inactive are those of the source. Cut-off read from the data, not from the text of the source: active = GI50 up to about 1.1 µM and inactive = higher.

Experiments:
Assay in all cases: growth of human tumour cells (NCI), 48 h
[1] = system: UACC-257
[2] = system: HOP-62
[3] = system: ACHN
[4] = system: HCC 2998
[5] = system: A549
[6] = system: Malme-3M
[7] = system: EKVX
[8] = system: SK-MEL-28
[9] = system: HCT-116
[10] = system: MOLT-4
[11] = system: M19-MEL
[12] = system: DMS-273
[13] = system: SR
[14] = system: OVCAR-5
[15] = system: UACC-62
[16] = system: T47D
[17] = system: MCF7
[18] = system: MDA-MB-231
[19] = system: DU-145
[20] = system: NCI/ADR-RES

Measured: GI50

CN(C)c1ccc(-c2cc(O)c3ccccc3n2)cc1
inactive: [1] > 100 µM | [2] > 100 µM | [3] > 100 µM | [4] > 100 µM | [5] > 100 µM | [6] > 100 µM | [7] > 100 µM | [8] > 100 µM | [9] > 100 µM | [10] > 100 µM | [11] > 100 µM | [12] > 100 µM | [13] > 100 µM

CCNC(=O)N(CC)CN(CC)C(=O)NCC
inactive: [1] > 100 µM | [2] > 100 µM | [14] > 100 µM | [3] > 100 µM | [4] > 100 µM | [5] > 100 µM | [6] > 100 µM | [7] > 100 µM | [8] > 100 µM | [9] > 100 µM | [15] > 100 µM | [10] > 100 µM | [11] > 100 µM

CN1CCc2c1nc(-c1cccnc1)c1c2N(C)CC1
inactive: [1] > 100 µM | [2] > 100 µM | [14] > 100 µM | [3] > 100 µM | [4] > 100 µM | [5] > 100 µM | [6] > 100 µM | [7] > 100 µM | [9] > 100 µM | [15] > 100 µM | [10] > 100 µM | [11] > 100 µM | [12] > 100 µM

Cc1ccccc1C1=C(C(=O)Nc2ccc(Cl)c(Cl)c2)NC(=S)NC1N (configuration not stated)
inactive: [1] > 100 µM | [14] 82.6 µM | [3] > 100 µM | [5] > 100 µM | [6] > 100 µM | [7] > 100 µM | [8] > 100 µM | [9] > 100 µM | [15] > 100 µM | [10] > 100 µM | [11] > 100 µM | [12] > 100 µM

Cc1ccccc1C1=[N+]([O-])c2ccccc2C1=O
inactive: [1] 14.7 µM | [2] 23.1 µM | [14] 27.6 µM | [3] 16.9 µM | [5] > 10 µM | [6] 18.4 µM | [7] 21 µM | [8] 20.7 µM | [9] 18.5 µM | [15] 20.1 µM | [10] 19 µM | [11] 15.2 µM | [13] 54.7 µM

CC1=C(C(=O)NNS(=O)(=O)c2ccc(C)cc2)CC(C(=O)NNS(=O)(=O)c2ccc(C)cc2)=C(C)N1
inactive: [1] > 100 µM | [2] > 100 µM | [14] 70.1 µM | [3] 84.9 µM | [4] > 100 µM | [5] > 100 µM | [6] > 100 µM | [7] > 100 µM | [8] > 100 µM | [9] > 100 µM | [15] 14.3 µM | [10] 46.8 µM | [11] 98.9 µM | [13] 61.1 µM

COC(=O)NCCc1n[nH]c2c1C(=O)C=C(N1CCOCC1)C2=O
inactive: [16] > 100 µM | [1] > 100 µM | [2] > 100 µM | [14] > 100 µM | [17] > 100 µM | [3] > 100 µM | [4] > 100 µM | [5] > 100 µM | [18] > 100 µM | [6] > 100 µM | [7] > 100 µM | [8] > 100 µM | [19] > 100 µM | [9] > 100 µM | [15] > 100 µM | [10] > 100 µM | [20] > 100 µM | [13] > 100 µM

O=C1CCCCC1C(O)(C(F)(F)F)C(F)(F)Cl (configuration not stated)
inactive: [16] > 10 µM | [1] > 10 µM | [2] > 10 µM | [14] > 10 µM | [17] > 10 µM | [3] > 10 µM | [4] > 10 µM | [5] > 10 µM | [18] > 10 µM | [6] > 10 µM | [7] > 10 µM | [8] > 10 µM | [19] > 10 µM | [9] > 10 µM | [15] > 10 µM | [10] > 10 µM | [20] > 10 µM | [13] > 10 µM

COc1ccc(C2C3=C(COC3=O)Oc3cc4c(cc32)OCO4)cc1 (configuration not stated)
inactive: [1] 39.3 µM | [2] 8.39 µM | [3] 21.1 µM | [5] 9.18 µM | [6] 56 µM | [7] 50.5 µM | [8] 47.9 µM | [9] 13.2 µM | [15] 10.6 µM | [10] 6.71 µM | [11] 15.5 µM | [12] 5.26 µM

Cc1oc2c(C)c(O)c3c(c2c1C1(C)OCCO1)C(=O)C=C(Cl)C3=O
inactive: [1] > 100 µM | [2] > 100 µM | [14] > 100 µM | [3] > 100 µM | [5] > 100 µM | [7] > 100 µM | [8] > 100 µM | [9] > 100 µM | [10] > 100 µM | [11] > 100 µM | [12] > 100 µM | [13] > 100 µM

O=c1c(Cc2ccccc2)c(O)cc2n1CCC2
inactive: [1] > 100 µM | [2] > 100 µM | [14] > 100 µM | [3] > 100 µM | [4] > 100 µM | [5] > 100 µM | [6] > 100 µM | [7] > 100 µM | [8] > 100 µM | [9] > 100 µM | [15] > 100 µM | [10] > 100 µM | [11] > 100 µM | [13] > 100 µM

COc1c(C(=O)NCCN(CCNC(=O)c2cccc(-c3cccc(C(=O)N(C)C)c3OC)c2OC)CCNC(=O)c2cccc(-c3cccc(C(=O)N(C)C)c3OC)c2OC)cccc1-c1cccc(C(=O)N(C)C)c1OC
inactive: [16] 15.1 µM | [1] 29 µM | [2] 97.7 µM | [14] 34.2 µM | [17] 18.8 µM | [3] > 100 µM | [4] 17.2 µM | [5] > 100 µM | [18] 32.4 µM | [6] 18.7 µM | [7] 47.6 µM | [8] 19.5 µM | [19] 32.7 µM | [9] 20 µM | [15] 31.6 µM | [10] 24.7 µM | [20] > 100 µM | [13] 26.6 µM

CC1(C)CCCCCC(C)(CCCO)C1=O (configuration not stated)
inactive: [16] > 100 µM | [1] > 100 µM | [2] > 100 µM | [14] > 100 µM | [17] > 100 µM | [3] > 100 µM | [4] > 100 µM | [5] > 100 µM | [18] > 100 µM | [6] > 100 µM | [7] > 100 µM | [8] > 100 µM | [19] > 100 µM | [9] > 100 µM | [15] > 100 µM | [10] > 100 µM | [20] > 100 µM | [13] > 100 µM

Cc1cc(N(CCC#N)CCC#N)ccc1/N=N/c1cccc(Cl)c1
inactive: [1] > 100 µM | [2] 86.5 µM | [14] > 100 µM | [3] > 100 µM | [5] 9.93 µM | [6] > 100 µM | [7] > 100 µM | [8] > 100 µM | [9] > 100 µM | [15] 70.8 µM | [11] > 100 µM | [12] 9.68 µM

O=C(c1ccccc1)c1c(C(=O)c2ccccc2)c(-c2ccccc2)c2c(-c3ccccc3)sc(-c3ccccc3)c2c1-c1ccccc1
inactive: [1] > 100 µM | [2] > 100 µM | [14] > 100 µM | [3] > 100 µM | [4] > 100 µM | [5] > 100 µM | [6] > 100 µM | [7] > 100 µM | [8] > 100 µM | [9] > 100 µM | [15] > 100 µM | [11] > 100 µM | [12] > 100 µM

CCOC(=O)/C=C/[C@H](O)[C@@H](O)/C=C/C(=O)OCC
inactive: [16] 34.1 µM | [1] 45.8 µM | [2] 21.3 µM | [14] 51.2 µM | [17] 19.6 µM | [3] 23.8 µM | [4] 36.1 µM | [5] 40.7 µM | [18] 41.3 µM | [6] 21.6 µM | [7] 24.7 µM | [8] 18.2 µM | [19] 37.4 µM | [9] 18.2 µM | [15] 21.3 µM | [10] 14.9 µM | [20] 29.9 µM | [13] 8.04 µM

COc1ccc(N2C(=O)C3c4[nH]c5ccccc5c4C4CC(C)CC(C)C4C3C2=O)cc1 (configuration not stated)
inactive: [1] > 100 µM | [2] > 100 µM | [3] > 100 µM | [4] > 100 µM | [5] > 100 µM | [6] > 100 µM | [7] > 100 µM | [8] > 100 µM | [9] > 100 µM | [15] > 100 µM | [10] > 100 µM | [11] > 100 µM | [12] > 100 µM | [13] > 100 µM

Cc1ccccc1NC(=O)CC(=O)NNCC(=O)Nc1nnc(-c2ccccc2)s1
inactive: [1] > 100 µM | [2] 42.9 µM | [14] > 100 µM | [3] 54.2 µM | [4] > 100 µM | [5] > 100 µM | [7] 49.7 µM | [8] > 100 µM | [9] 64.9 µM | [15] > 100 µM | [10] 35.7 µM | [11] > 100 µM | [12] 73.6 µM | [13] 32.1 µM

COc1ccccc1/C=C\c1cc(OC)c(OC)c(OC)c1
inactive: [1] 31.6 µM | [2] 5.18 µM | [14] 34 µM | [3] 33.8 µM | [5] 6.08 µM | [6] 16.5 µM | [7] 15.2 µM | [8] 33.9 µM | [9] 9.23 µM | [15] 5.9 µM | [10] 4.31 µM | [11] 9.1 µM | [12] 4.62 µM
